Assay results: ChEMBL document CHEMBL5038592, “Discovery of MK-8153, a Potent and Selective ROMK Inhibitor and Novel Diuretic/Natriuretic” (J Med Chem, 2021)
The source made the active and inactive calls. No cut-off for these calls is given here.

Key:
[1] = Apparent permeability in pig LLC-PK1 cells
[2] = target: T1, ATP-sensitive inward rectifier potassium channel 1 (Rattus norvegicus, UniProt P35560); assay: Inhibition of rat Kir1.1 expressed in HEK293 cells by electrophysiology assay; type: cell-based
T1 sequence (P35560 whole entry): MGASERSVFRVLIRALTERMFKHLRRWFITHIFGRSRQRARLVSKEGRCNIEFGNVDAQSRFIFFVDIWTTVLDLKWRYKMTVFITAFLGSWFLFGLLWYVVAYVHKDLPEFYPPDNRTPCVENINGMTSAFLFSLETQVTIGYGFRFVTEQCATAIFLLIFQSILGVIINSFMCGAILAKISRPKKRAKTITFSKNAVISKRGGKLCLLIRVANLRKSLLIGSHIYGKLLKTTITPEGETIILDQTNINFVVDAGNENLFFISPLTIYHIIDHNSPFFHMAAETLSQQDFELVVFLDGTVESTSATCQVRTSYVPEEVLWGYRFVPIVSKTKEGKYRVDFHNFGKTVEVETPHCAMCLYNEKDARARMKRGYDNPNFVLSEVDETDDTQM

[3] = Clearance in Wistar Han rat at 2 mg/kg, po or 1 mg/kg, iv; type: ADME, organism-based; conditions: in vivo
[4] = Volume of distribution at steady state in Wistar Han rat at 2 mg/kg, po or 1 mg/kg, iv; type: ADME, organism-based; conditions: in vivo, read-out: Vdss
[5] = Effective half life in Wistar Han rat at 2 mg/kg, po or 1 mg/kg, iv; type: ADME, organism-based; conditions: in vivo, read-out: t1/2eff (converted)
[6] = Oral bioavailability in Wistar Han rat at 2 mg/kg; type: ADME, organism-based; conditions: in vivo
[7] = Effective half life in Beagle dog at 2 mg/kg, po or 1 mg/kg, iv; type: ADME, organism-based, Canis lupus familiaris; conditions: in vivo, read-out: t1/2eff (converted)
[8] = Cmax in Beagle dog at 2 mg/kg, po or 1 mg/kg, iv; type: ADME, organism-based, Canis lupus familiaris; parameters: dose 2 mg/kg; conditions: in vivo
[9] = Tmax in Beagle dog at 2 mg/kg, po or 1 mg/kg, iv; type: ADME, organism-based, Canis lupus familiaris; conditions: in vivo
[10] = AUC (0 to infinity) in Beagle dog at 2 mg/kg, po or 1 mg/kg, iv; type: ADME, organism-based, Canis lupus familiaris; parameters: dose 2 mg/kg; conditions: in vivo
[11] = Clearance in rhesus monkey at 2 mg/kg, po or 1 mg/kg, iv; type: ADME, organism-based, Macaca mulatta; conditions: in vivo
[12] = Terminal half life in rhesus monkey at 2 mg/kg, po or 1 mg/kg, iv; type: ADME, organism-based, Macaca mulatta; conditions: in vivo, read-out: beta t1/2 (converted)
[13] = Tmax in rhesus monkey at 2 mg/kg, po or 1 mg/kg, iv; type: ADME, organism-based, Macaca mulatta; conditions: in vivo
[14] = Oral bioavailability in rhesus monkey at 2 mg/kg; type: ADME, organism-based, Macaca mulatta; conditions: in vivo
Rattus norvegicus [15] = assay: Antihypertensive activity in spontaneous hypertensive rat model assessed as decrease in systolic blood pressure at 3 mg/kg, po QD observed for 3 days; type: functional, organism-based; conditions: time 3.0 day
Rattus norvegicus [16] = assay: Antihypertensive activity in spontaneous hypertensive rat model assessed as decrease in systolic blood pressure at 1 mg/kg, po QD observed for 3 days; type: functional, organism-based; conditions: time 3.0 day
[17] = Metabolic stability in Wistar Han rat liver microsomes by LC/MS analysis; type: ADME, Microsome
[18] = Metabolic stability in Beagle dog liver microsomes by LC/MS analysis; type: ADME, Canis lupus familiaris, Microsome
[19] = Metabolic stability in rhesus monkey liver microsomes by LC/MS analysis; type: ADME, Macaca mulatta, Microsome
[20] = Metabolic stability in human liver microsomes by LC/MS analysis; type: ADME, Microsome
[21] = Metabolic stability in Wistar Han rat hepatocytes by LC/MS analysis; type: ADME, cell-based, Hepatocyte
Rattus norvegicus [22] = assay: Diuretic activity in orally dosed spontaneous hypertensive rat assessed as urine volume treated for 3 days measured after 0 to 4 hrs of dosing; type: functional, organism-based; conditions: time 3.0 day
Rattus norvegicus [23] = assay: Diuretic activity in orally dosed spontaneous hypertensive rat assessed as urine volume treated for 3 days measured after 0 to 24 hrs of dosing; type: functional, organism-based; conditions: time 3.0 day
Rattus norvegicus [24] = assay: Diuretic activity in orally dosed spontaneous hypertensive rat assessed as increase in sodium excretion treated for 3 days measured after 0 to 4 hrs of dosing; type: functional, organism-based; conditions: time 3.0 day
Rattus norvegicus [25] = assay: Diuretic activity in orally dosed spontaneous hypertensive rat assessed as increase in sodium excretion treated for 3 days measured after 0 to 24 hrs of dosing; type: functional, organism-based; conditions: time 3.0 day
[26] = Drug metabolism in human hepatocytes assessed as metabolite formation by LC/MS analysis; type: ADME, cell-based, Hepatocyte
[27] = Drug metabolism in Wistar Han rat hepatocytes assessed as metabolite formation by LC/MS analysis; type: ADME, cell-based, Hepatocyte
[28] = Inhibition of Kir2.1 (unknown origin); parameters: species or system Homo sapiens
[29] = target: T2, ATP-sensitive inward rectifier potassium channel 10 (Homo sapiens, UniProt P78508); assay: Inhibition of Kir4.1 (unknown origin)
T2 sequence (P78508 whole entry): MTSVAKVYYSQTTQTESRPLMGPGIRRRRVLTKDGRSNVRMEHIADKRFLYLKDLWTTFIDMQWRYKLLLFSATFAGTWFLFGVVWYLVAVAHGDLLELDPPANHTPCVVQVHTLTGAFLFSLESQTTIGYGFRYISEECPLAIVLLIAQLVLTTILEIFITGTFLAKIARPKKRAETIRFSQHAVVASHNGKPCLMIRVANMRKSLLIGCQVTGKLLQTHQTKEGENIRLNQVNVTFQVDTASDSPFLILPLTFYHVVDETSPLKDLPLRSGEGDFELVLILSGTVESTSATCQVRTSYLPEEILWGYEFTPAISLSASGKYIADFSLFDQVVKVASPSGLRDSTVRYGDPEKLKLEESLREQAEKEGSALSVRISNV

[30] = target: T3, Inward rectifier potassium channel 13 (Homo sapiens, UniProt O60928); assay: Inhibition of Kir7.1 (unknown origin)
T3 sequence (O60928 whole entry): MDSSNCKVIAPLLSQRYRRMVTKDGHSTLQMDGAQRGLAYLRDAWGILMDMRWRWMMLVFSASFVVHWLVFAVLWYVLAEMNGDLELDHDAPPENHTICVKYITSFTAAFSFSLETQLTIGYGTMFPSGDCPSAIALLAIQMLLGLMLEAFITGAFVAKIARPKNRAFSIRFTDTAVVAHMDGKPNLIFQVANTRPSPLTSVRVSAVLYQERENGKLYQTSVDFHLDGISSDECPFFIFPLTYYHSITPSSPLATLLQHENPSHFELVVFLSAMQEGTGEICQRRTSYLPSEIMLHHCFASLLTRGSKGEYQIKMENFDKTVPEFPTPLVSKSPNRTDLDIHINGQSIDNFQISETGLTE

[31] = target: Sodium channel protein type 5 subunit alpha (Homo sapiens, UniProt Q14524); assay: Inhibition of Nav1.5 (unknown origin)
[32] = target: Voltage-dependent L-type calcium channel subunit alpha-1C (Homo sapiens, UniProt Q13936); assay: Inhibition of Cav1.2 (unknown origin)
Cytochrome P450 2D6 = Cytochrome P450 2D6 (Homo sapiens, UniProt P10635); assay: Inhibition of CYP2D6 (unknown origin)
Cytochrome P450 2C9 = Cytochrome P450 2C9 (Homo sapiens, UniProt P11712); assay: Inhibition of CYP2C9 (unknown origin)
[33] = Toxicity in rat assessed as histological changes at 5 to 300 mg/kg treated for 7 days; type: organism-based; conditions: in vivo, 168 h, dose 5-300 mg/kg, time 7 day
[34] = Drug excretion in bile-duct cannulated rat assessed as urinary excretion; type: ADME; conditions: urine, read-out: Drug excretion

Sequence of Cytochrome P450 2D6 (P10635 whole entry): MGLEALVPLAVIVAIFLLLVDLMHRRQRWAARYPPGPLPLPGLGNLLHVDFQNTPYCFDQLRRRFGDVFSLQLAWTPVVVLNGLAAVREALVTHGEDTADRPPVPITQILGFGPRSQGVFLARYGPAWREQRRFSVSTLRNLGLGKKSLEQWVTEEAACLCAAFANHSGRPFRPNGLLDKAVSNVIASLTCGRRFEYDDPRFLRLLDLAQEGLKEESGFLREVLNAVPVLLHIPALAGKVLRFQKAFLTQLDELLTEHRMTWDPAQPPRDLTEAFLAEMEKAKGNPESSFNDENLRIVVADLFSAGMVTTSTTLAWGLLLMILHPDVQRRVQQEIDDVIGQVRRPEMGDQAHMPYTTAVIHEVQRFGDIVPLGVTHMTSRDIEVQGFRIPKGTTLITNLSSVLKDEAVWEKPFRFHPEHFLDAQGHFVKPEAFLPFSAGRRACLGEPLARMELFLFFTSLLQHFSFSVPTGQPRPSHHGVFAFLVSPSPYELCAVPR
Sequence of Voltage-dependent L-type calcium channel subunit alpha-1C (Q13936 whole entry): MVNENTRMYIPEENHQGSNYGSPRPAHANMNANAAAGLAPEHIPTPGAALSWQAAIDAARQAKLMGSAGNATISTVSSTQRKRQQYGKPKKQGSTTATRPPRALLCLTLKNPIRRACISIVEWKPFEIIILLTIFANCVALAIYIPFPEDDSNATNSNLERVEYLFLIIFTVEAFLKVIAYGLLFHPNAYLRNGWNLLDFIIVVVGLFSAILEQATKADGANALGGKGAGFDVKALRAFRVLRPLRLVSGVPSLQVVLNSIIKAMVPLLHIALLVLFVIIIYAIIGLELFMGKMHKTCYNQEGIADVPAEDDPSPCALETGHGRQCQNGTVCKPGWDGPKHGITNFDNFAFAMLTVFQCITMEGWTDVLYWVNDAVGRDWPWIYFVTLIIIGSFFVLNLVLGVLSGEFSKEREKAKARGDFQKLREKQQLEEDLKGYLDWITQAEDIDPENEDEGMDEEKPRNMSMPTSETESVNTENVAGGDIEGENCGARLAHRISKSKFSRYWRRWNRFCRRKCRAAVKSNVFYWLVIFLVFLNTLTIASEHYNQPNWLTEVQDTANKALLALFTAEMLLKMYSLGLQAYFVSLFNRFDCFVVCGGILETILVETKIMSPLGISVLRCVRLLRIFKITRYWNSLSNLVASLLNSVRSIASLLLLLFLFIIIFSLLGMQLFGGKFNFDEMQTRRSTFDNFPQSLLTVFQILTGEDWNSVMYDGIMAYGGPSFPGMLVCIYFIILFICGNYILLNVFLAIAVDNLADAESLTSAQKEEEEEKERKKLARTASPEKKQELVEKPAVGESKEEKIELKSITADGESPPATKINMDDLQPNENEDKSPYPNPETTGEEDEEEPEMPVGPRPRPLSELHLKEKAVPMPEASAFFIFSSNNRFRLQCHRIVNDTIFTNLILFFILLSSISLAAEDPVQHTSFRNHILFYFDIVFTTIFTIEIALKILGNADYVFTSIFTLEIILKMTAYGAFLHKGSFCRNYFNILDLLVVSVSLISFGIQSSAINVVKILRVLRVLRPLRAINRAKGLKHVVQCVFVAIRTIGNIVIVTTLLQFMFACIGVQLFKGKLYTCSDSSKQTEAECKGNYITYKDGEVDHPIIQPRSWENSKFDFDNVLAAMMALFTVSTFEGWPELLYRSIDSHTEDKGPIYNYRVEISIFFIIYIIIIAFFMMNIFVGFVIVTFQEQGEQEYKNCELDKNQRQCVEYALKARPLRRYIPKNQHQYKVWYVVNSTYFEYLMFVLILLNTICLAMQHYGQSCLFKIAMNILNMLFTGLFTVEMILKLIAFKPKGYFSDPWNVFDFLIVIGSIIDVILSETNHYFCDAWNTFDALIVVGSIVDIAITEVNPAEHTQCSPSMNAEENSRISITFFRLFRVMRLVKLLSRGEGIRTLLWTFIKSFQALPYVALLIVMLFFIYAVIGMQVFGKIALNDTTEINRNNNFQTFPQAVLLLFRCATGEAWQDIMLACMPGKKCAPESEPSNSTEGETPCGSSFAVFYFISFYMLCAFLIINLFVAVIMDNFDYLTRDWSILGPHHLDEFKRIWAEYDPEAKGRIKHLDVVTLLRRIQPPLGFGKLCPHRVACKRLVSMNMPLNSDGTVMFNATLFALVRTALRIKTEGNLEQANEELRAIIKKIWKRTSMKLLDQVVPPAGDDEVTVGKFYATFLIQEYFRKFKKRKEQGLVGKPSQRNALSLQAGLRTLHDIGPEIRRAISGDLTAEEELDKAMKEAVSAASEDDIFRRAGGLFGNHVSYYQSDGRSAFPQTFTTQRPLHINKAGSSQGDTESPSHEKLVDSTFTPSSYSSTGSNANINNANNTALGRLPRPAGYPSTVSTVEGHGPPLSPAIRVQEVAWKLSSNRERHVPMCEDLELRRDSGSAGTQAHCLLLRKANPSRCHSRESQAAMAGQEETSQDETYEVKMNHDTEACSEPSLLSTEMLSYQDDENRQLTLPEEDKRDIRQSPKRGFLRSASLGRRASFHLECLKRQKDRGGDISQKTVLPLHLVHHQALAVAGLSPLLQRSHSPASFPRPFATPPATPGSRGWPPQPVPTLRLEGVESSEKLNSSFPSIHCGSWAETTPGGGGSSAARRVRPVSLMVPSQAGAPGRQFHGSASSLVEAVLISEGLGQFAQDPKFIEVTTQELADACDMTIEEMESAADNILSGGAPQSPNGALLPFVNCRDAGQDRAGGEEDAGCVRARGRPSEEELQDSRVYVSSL
Sequence of Cytochrome P450 2C9 (P11712 whole entry): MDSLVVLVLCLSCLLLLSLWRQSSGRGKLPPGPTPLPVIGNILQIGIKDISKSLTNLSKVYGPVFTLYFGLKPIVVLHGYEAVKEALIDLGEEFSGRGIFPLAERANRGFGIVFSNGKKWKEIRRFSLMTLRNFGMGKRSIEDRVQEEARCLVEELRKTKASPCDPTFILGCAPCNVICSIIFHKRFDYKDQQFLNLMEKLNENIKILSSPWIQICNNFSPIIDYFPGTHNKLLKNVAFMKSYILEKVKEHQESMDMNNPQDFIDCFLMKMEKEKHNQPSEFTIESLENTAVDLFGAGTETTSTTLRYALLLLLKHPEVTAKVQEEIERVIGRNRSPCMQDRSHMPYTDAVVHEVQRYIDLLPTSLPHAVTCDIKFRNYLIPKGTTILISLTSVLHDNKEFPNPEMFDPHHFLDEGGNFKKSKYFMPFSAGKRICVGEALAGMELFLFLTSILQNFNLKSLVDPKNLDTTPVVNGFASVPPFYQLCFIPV

Papp [1]: 21 ×10⁻⁶ cm/s
IC50 [2]: 0.0028 µM
clearance [3]: 29.4 mL/min/kg
Vd [4]: 14.7 L/kg
half-life [5]: 1.8 h
bioavailability [6]: 53%
half-life [7]: 6.8 h
Cmax [8]: 2400 nM
Tmax [9]: 0.8 h
AUC(0-inf) [10]: 15.1 µM·h
clearance [11]: 58.3 mL/min/kg
half-life [12]: 3.3 h
Tmax [13]: 0.5 h
bioavailability [14]: 3.4%
Stability [17]: Stable
Stability [18]: Stable
Stability [19]: Stable
Stability [20]: Stable
Stability [21]: Stable
Drug metabolism [26]: Metabolite_Notdetected
Drug metabolism [27]: Metabolite_Notdetected
IC50 [28]: > 100 µM
IC50 [29]: > 100 µM
IC50 [30]: > 100 µM
IC50 (Cytochrome P450 2D6): > 50 µM
IC50 (Cytochrome P450 2C9): > 50 µM
dose excreted [34]: 66%
Compound: CC1=C(N2CCC3(CCN(C[C@H](O)c4ccc5c(c4C)COC5=O)CC3)C2=O)COC1=O
Activity (Rattus norvegicus [15]): Dose-Dependent Effect
Activity (Rattus norvegicus [16]): Active
Activity (Rattus norvegicus [22]): Dose-Dependent Effect
Activity (Rattus norvegicus [23]): Dose-Dependent Effect
Activity (Rattus norvegicus [24]): Dose-Dependent Effect
Activity (Rattus norvegicus [25]): Dose-Dependent Effect
IC50 [31]: > 30 µM
IC50 [32]: > 30 µM
Activity [33]: Non-Toxic
